Results on 11 molecules are retold here after ChEMBL document CHEMBL5154863, “Design and synthesis of quinolinium-based derivatives targeting FtsZ for antibacterial evaluation and mechanistic study” (Eur J Med Chem, 2022).

≈ marks a conversion by molar mass, not a printed value. Bounds are passed on as bounds.

Type in all cases: functional
Common to all, as to settings: time 20-24 hrs

The test system of test [1] is Staphylococcus aureus. Put plainly: Antibacterial activity against vancomycin-intermediate Staphylococcus aureus Mu50 assessed as inhibition of bacterial growth incubated for 20 to 24 hrs by broth micro dilution method.
The test system of test [2] is Escherichia coli. Put plainly: Antibacterial activity against Escherichia coli ATCC 25922 assessed as inhibition of bacterial growth incubated for 20 to 24 hrs by broth micro dilution method.
The test system of test [3] is Staphylococcus aureus. Put plainly: Antibacterial activity against methicillin-resistant Staphylococcus aureus ATCC 43300 assessed as inhibition of bacterial growth incubated for 20 to 24 hrs by broth micro dilution method.
The test system of another test is Acinetobacter baumannii. Put plainly: Antibacterial activity against multi-drug resistant Acinetobacter baumannii ATCC 19606 assessed as inhibition of bacterial growth incubated for 20 to 24 hrs by broth micro dilution method.
A further test concerns Klebsiella pneumoniae. Put plainly: Antibacterial activity against NDM-1 expressing Klebsiella pneumoniae ATCC BAA 2470 assessed as inhibition of bacterial growth incubated for 20 to 24 hrs by broth micro dilution method.
For test [4], the system named is Staphylococcus aureus. Briefly: Antibacterial activity against methicillin-resistant Staphylococcus aureus ATCC BAA-1720 assessed as inhibition of bacterial growth incubated for 20 to 24 hrs by broth micro dilution method.
The subject of test [5] is Staphylococcus epidermidis. Briefly: Antibacterial activity against Staphylococcus epidermidis ATCC 12228 assessed as inhibition of bacterial growth incubated for 20 to 24 hrs by broth micro dilution method.
For test [6], the system named is Enterococcus faecium. Briefly: Antibacterial activity against Enterococcus faecium ATCC 49624 assessed as inhibition of bacterial growth incubated for 20 to 24 hrs by broth micro dilution method.
The subject of test [7] is Escherichia coli. Put plainly: Antibacterial activity against Escherichia coli ATCC 8739 assessed as inhibition of bacterial growth incubated for 20 to 24 hrs by broth micro dilution method.
For the next test, the system named is Pseudomonas aeruginosa. Put plainly: Antibacterial activity against […] Pseudomonas aeruginosa ATCC 27853 assessed as inhibition of bacterial growth incubated for 20 to 24 hrs by broth micro dilution method.
Test [8] concerns Enterococcus faecium. Briefly: Antibacterial activity against vancomycin-resistant Enterococcus faecium clinical isolate assessed as inhibition of bacterial growth incubated for 20 to 24 hrs by broth micro dilution method.
The test system of a further test is Bacillus subtilis. Put plainly: Antibacterial activity against Bacillus subtilis CMCC (B) 63501 assessed as inhibition of bacterial growth incubated for 20 to 24 hrs by broth micro dilution method.
The test system of test [9] is Staphylococcus aureus. Put plainly: Antibacterial activity against methicillin-resistant Staphylococcus aureus ATCC 33592 assessed as inhibition of bacterial growth incubated for 20 to 24 hrs by broth micro dilution method.
Another test concerns Enterococcus faecalis. Put plainly: Antibacterial activity against Enterococcus faecalis ATCC 29212 assessed as inhibition of bacterial growth incubated for 20 to 24 hrs by broth micro dilution method.
The subject of test [10] is Enterococcus faecium. Briefly: Antibacterial activity against vancomycin resistant Enterococcus faecium ATCC 700221 assessed as inhibition of bacterial growth incubated for 20 to 24 hrs by broth micro dilution method.
The test system of test [11] is Staphylococcus aureus. Briefly: Antibacterial activity against Staphylococcus aureus ATCC 29213 assessed as inhibition of bacterial growth incubated for 20 to 24 hrs by broth micro dilution method.
Test [12] concerns Escherichia coli. Briefly: Antibacterial activity against NDM-1 expressing Escherichia coli ATCC BAA2469 assessed as inhibition of bacterial growth incubated for 20 to 24 hrs by broth micro dilution method.

One may read the MIC as the smallest concentration in the dilution series that meets the test's criterion for growth inhibition. For `CCCCCNc1cc(/C=C/c2ccc(N(C)C)cc2)c2ccccc2[n+]1C.[I-]`, the MIC in the test on Staphylococcus aureus [1] was 8 µg/mL; with Escherichia coli [2], more than 64 µg/mL; in the test with Staphylococcus aureus [3], 8 µg/mL; in the test with Acinetobacter baumannii, more than 64 µg/mL; with Klebsiella pneumoniae, more than 64 µg/mL; in the test on Staphylococcus aureus [4], 8 µg/mL. The MIC in test [5] was 8 µg/mL; with Enterococcus faecium [6], 8 µg/mL; in the test with Escherichia coli [7] it was more than 64 µg/mL; in the test with Pseudomonas aeruginosa, more than 64 µg/mL; with Enterococcus faecium [8], 8 µg/mL; with Bacillus subtilis, 8 µg/mL. In addition, the MIC is 8 µg/mL in the test with Staphylococcus aureus [9]; 16 µg/mL with Enterococcus faecalis; 8 µg/mL with Enterococcus faecium [10]; 8 µg/mL in the test on Staphylococcus aureus [11]; more than 64 µg/mL in the test on Escherichia coli [12].

As for `O=C(O)c1cn(C2CC2)c2cc(N3CCNCC3)c(F)cc2c1=O` [CIPROFLOXACIN], the minimal inhibitory concentration (MIC) was 1 µg/mL (≈ 3.02 µM) in the test on Staphylococcus aureus [1]; 2 µg/mL (≈ 6.04 µM) in the test with Staphylococcus aureus [3]; more than 64 µg/mL in the test on Klebsiella pneumoniae; more than 64 µg/mL with Staphylococcus aureus [4]; 1 µg/mL (≈ 3.02 µM) in [5]; 32 µg/mL (≈ 96.6 µM) with Enterococcus faecium [6]. In addition, the MIC was less than 0.125 µg/mL with Escherichia coli [7]; 1 µg/mL (≈ 3.02 µM) in the test with Pseudomonas aeruginosa; 0.25 µg/mL (≈ 0.754 µM) with Bacillus subtilis; 4 µg/mL (≈ 12.1 µM) with Enterococcus faecalis; more than 64 µg/mL in the test on Enterococcus faecium [10]; 0.25 µg/mL (≈ 0.754 µM) in the test on Staphylococcus aureus [11]. Further, the minimum inhibitory concentration (MIC) in the test on Escherichia coli [12] was more than 64 µg/mL.

On to `CN(C)c1ccc(/C=C/c2cc(N3CCCCC3)[n+](C)c3ccccc23)cc1.[I-]`, for which the MIC is 4 µg/mL in the test on Staphylococcus aureus [1]; 16 µg/mL with Escherichia coli [2]; 4 µg/mL in the test on Staphylococcus aureus [3]; more than 64 µg/mL with Acinetobacter baumannii; more than 64 µg/mL in the test on Klebsiella pneumoniae; 4 µg/mL in the test with Staphylococcus aureus [4]. Besides, the minimum inhibitory concentration (MIC) in [5] was 1 µg/mL; in the test with Enterococcus faecium [6], 8 µg/mL; in the test on Escherichia coli [7], 32 µg/mL; in the test on Pseudomonas aeruginosa, more than 64 µg/mL; in the test on Enterococcus faecium [8] it was 8 µg/mL; with Bacillus subtilis it was 4 µg/mL. The MIC is 8 µg/mL with Staphylococcus aureus [9]; 16 µg/mL with Enterococcus faecalis; 2 µg/mL with Enterococcus faecium [10]; 2 µg/mL in the test on Staphylococcus aureus [11]; 64 µg/mL with Escherichia coli [12].

In the case of `CN(C)c1ccc(/C=C/c2cc(NCCCc3ccccc3)[n+](C)c3ccccc23)cc1.[I-]`, the minimum inhibitory concentration (MIC) was 4 µg/mL with Staphylococcus aureus [1]; more than 64 µg/mL in the test on Escherichia coli [2]; 4 µg/mL in the test on Staphylococcus aureus [3]; more than 64 µg/mL in the test with Acinetobacter baumannii; more than 64 µg/mL in the test on Klebsiella pneumoniae; 4 µg/mL in the test on Staphylococcus aureus [4]. Further, the minimal inhibitory concentration (MIC) is 4 µg/mL in test [5]; 4 µg/mL in the test on Enterococcus faecium [6]; more than 64 µg/mL with Escherichia coli [7]; more than 64 µg/mL in the test on Pseudomonas aeruginosa; 4 µg/mL with Enterococcus faecium [8]; 2 µg/mL in the test on Bacillus subtilis. Moreover, the MIC in the test with Staphylococcus aureus [9] is 4 µg/mL; in the test on Enterococcus faecalis, 4 µg/mL; in the test on Enterococcus faecium [10] it was 4 µg/mL; with Staphylococcus aureus [11], 4 µg/mL; with Escherichia coli [12] it was more than 64 µg/mL.

As to `CN(C)c1ccc(/C=C/c2cc(N3CCOCC3)c3ccccc3[n+]2C)cc1.[I-]`, the minimum inhibitory concentration (MIC) is 32 µg/mL with Staphylococcus aureus [1]; more than 64 µg/mL in the test with Escherichia coli [2]; 64 µg/mL in the test on Staphylococcus aureus [3]; more than 64 µg/mL with Acinetobacter baumannii; more than 64 µg/mL with Klebsiella pneumoniae; 64 µg/mL in the test with Staphylococcus aureus [4]. Further, the minimal inhibitory concentration (MIC) in [5] is 16 µg/mL; in the test with Enterococcus faecium [6], 8 µg/mL; in the test on Escherichia coli [7], more than 64 µg/mL; with Pseudomonas aeruginosa, more than 64 µg/mL; in the test with Enterococcus faecium [8] it was 32 µg/mL; with Bacillus subtilis, 32 µg/mL. Further, the MIC in the test on Staphylococcus aureus [9] is 64 µg/mL; in the test on Enterococcus faecalis, more than 64 µg/mL; in the test with Enterococcus faecium [10] it was 16 µg/mL; with Staphylococcus aureus [11] it was 32 µg/mL; with Escherichia coli [12], more than 64 µg/mL.

As to `CCCNc1cc(/C=C/c2ccc(N(C)C)cc2)[n+](C)c2ccccc12.[I-]`, the minimal inhibitory concentration (MIC) with Staphylococcus aureus [1] was 8 µg/mL; in the test on Escherichia coli [2], 32 µg/mL; with Staphylococcus aureus [3], 8 µg/mL; in the test on Acinetobacter baumannii it was more than 64 µg/mL; with Klebsiella pneumoniae, more than 64 µg/mL; in the test with Staphylococcus aureus [4] it was 4 µg/mL. For the same molecule, the MIC in [5] is 2 µg/mL; in the test on Enterococcus faecium [6] it was 16 µg/mL; with Escherichia coli [7], more than 64 µg/mL; with Pseudomonas aeruginosa, more than 64 µg/mL; in the test on Enterococcus faecium [8] it was 8 µg/mL; with Bacillus subtilis it was 16 µg/mL. Moreover, the MIC with Staphylococcus aureus [9] was 4 µg/mL; in the test on Enterococcus faecalis, 4 µg/mL; in the test on Enterococcus faecium [10], 4 µg/mL; with Staphylococcus aureus [11], 8 µg/mL; in the test on Escherichia coli [12], more than 64 µg/mL.

Regarding `CN(C)c1ccc(/C=C/c2cc(NCCCO)c3ccccc3[n+]2C)cc1.[I-]`, the MIC in the test on Staphylococcus aureus [1] is 16 µg/mL; in the test with Escherichia coli [2], more than 64 µg/mL; in the test on Staphylococcus aureus [3], 64 µg/mL; in the test on Acinetobacter baumannii it was more than 64 µg/mL; with Klebsiella pneumoniae, more than 64 µg/mL; in the test with Staphylococcus aureus [4], 64 µg/mL. Also, the MIC was 8 µg/mL in [5]; 8 µg/mL with Enterococcus faecium [6]; more than 64 µg/mL in the test with Escherichia coli [7]; more than 64 µg/mL in the test with Pseudomonas aeruginosa; more than 64 µg/mL in the test with Enterococcus faecium [8]; more than 64 µg/mL in the test on Bacillus subtilis. Further, the MIC in the test with Staphylococcus aureus [9] was 32 µg/mL; in the test with Enterococcus faecalis, 16 µg/mL; in the test on Enterococcus faecium [10], 16 µg/mL; in the test with Staphylococcus aureus [11], 32 µg/mL; with Escherichia coli [12] it was more than 64 µg/mL.

With `CC1(C)S[C@@H]2[C@H](NC(=O)[C@H](N)c3ccccc3)C(=O)N2[C@H]1C(=O)O` [AMPICILLIN], the MIC in the test with Staphylococcus aureus [1] is 0.125 µg/mL (≈ 0.358 µM); in the test with Staphylococcus aureus [3], more than 64 µg/mL; with Acinetobacter baumannii, more than 64 µg/mL; in the test with Klebsiella pneumoniae, more than 64 µg/mL; in the test with Staphylococcus aureus [4] it was more than 64 µg/mL; in test [5], more than 64 µg/mL. Besides, the MIC was 2 µg/mL (≈ 5.72 µM) in the test on Enterococcus faecium [6]; 16 µg/mL (≈ 45.8 µM) in the test on Escherichia coli [7]; more than 64 µg/mL in the test with Pseudomonas aeruginosa; more than 64 µg/mL with Enterococcus faecium [8]; 4 µg/mL (≈ 11.4 µM) with Bacillus subtilis; 64 µg/mL (≈ 183 µM) in the test on Staphylococcus aureus [9]. Besides, the MIC was 1 µg/mL (≈ 2.86 µM) with Enterococcus faecalis, 0.25 µg/mL (≈ 0.715 µM) in the test with Enterococcus faecium [10], more than 64 µg/mL with Staphylococcus aureus [11] and more than 64 µg/mL in the test on Escherichia coli [12].

Consider `CN[C@H](CC(C)C)C(=O)N[C@H]1C(=O)N[C@@H](CC(N)=O)C(=O)N[C@H]2C(=O)N[C@H]3C(=O)N[C@H](C(=O)N[C@H](C(=O)O)c4cc(O)cc(O)c4-c4cc3ccc4O)[C@H](O)c3ccc(c(Cl)c3)Oc3cc2cc(c3O[C@@H]2O[C@H](CO)[C@@H](O)[C@H](O)[C@H]2O[C@H]2C[C@](C)(N)[C@H](O)[C@H](C)O2)Oc2ccc(cc2Cl)[C@H]1O` [VANCOMYCIN], for which the MIC was 32 µg/mL (≈ 22.1 µM) in the test with Staphylococcus aureus [1]; more than 64 µg/mL in the test with Escherichia coli [2]; more than 64 µg/mL in the test on Acinetobacter baumannii; more than 64 µg/mL with Klebsiella pneumoniae; more than 64 µg/mL in test [5]; more than 64 µg/mL with Escherichia coli [7]. For the same molecule, the MIC with Pseudomonas aeruginosa is more than 64 µg/mL; in the test with Enterococcus faecium [8], more than 64 µg/mL; in the test with Bacillus subtilis, 0.25 µg/mL (≈ 0.173 µM); in the test on Enterococcus faecalis, 2 µg/mL (≈ 1.38 µM); in the test with Enterococcus faecium [10], 1020 µg/mL (≈ 707 µM); in the test on Escherichia coli [12], more than 64 µg/mL.

Consider `CN(C)c1ccc(/C=C/c2cc[n+](C)c3ccccc23)cc1.[I-]`, for which the MIC in [5] was 16 µg/mL; with Enterococcus faecium [6], 16 µg/mL; in the test with Bacillus subtilis, 64 µg/mL; in the test with Enterococcus faecalis, more than 64 µg/mL; with Staphylococcus aureus [11] it was 16 µg/mL.

As to `CN(C)c1ccc(/C=C/c2ccc3ccccc3[n+]2C)cc1.[I-]`, the MIC in test [5] is 16 µg/mL; in the test on Enterococcus faecium [6], 8 µg/mL; in the test on Bacillus subtilis, 64 µg/mL; in the test with Enterococcus faecalis, more than 64 µg/mL; with Staphylococcus aureus [11] it was 16 µg/mL.
